The subject of the experiment is orthotopic E98 GBM tumors. The experiment in a line: Orthotopic E98 GBM xenograft efficacy in Abcb1a/b;Abcg2-/- mice. In kind it is in vivo. On the procedure:
Orthotopic GBM tumors were induced in Abcb1a/b; Abcg2^−/− mice by stereotactic injection of E98 cells expressing firefly luciferase (200,000 cells in 2 µL HBSS (Life Technologies) at an injection speed of 1 µL/min) at 2 mm lateral, 1 mm anterior and 3 mm ventral to the bregma. Tumor growth was monitored using bioluminescence imaging by injecting D-luciferin (150 mg/kg i.p.; Promega, Madison, WI) and subsequently imaging mice on an IVIS Spectrum Imaging System (PerkinElmer, Waltham, MA). Survival was monitored daily and the humane endpoint was defined as body weight loss exceeding 20%. Time-to-recurrence was defined as the number of days elapsed until the tumor regained its pre-treatment size. Tumors were treated with CT-guided radiotherapy (2–3.5 Gy per fraction) using an X-RAD 225Cx system (Precision X-Ray, North Branford, CT), temozolomide (10 mg/kg p.o. freshly prepared from powder in an aqueous solution containing 10% v/v ethanol), NTRC0066-0 (20, 10 or 5 mg/kg p.o. in an aqueous solution containing 10% v/v DMSO and 10% v/v Cremophor EL (Life Technologies)) or different combinations thereof, as described per experiment in the Figure legends.

The mark [1] stands for this setting: E98 tumors, 5/10 mg/kg b.i.d.x7d monotherapy.
Where [2] appears, read: adjuvant: 5/10 mg/kg b.i.d.x7d after RT + TMZ vs RT + TMZ alone.
[3] abbreviates: recurrent E98 tumors after TMZ + RT, 20 mg/kg q.2d.x11d second-line.
The mark [4] stands for this setting: therapy-naive E98 tumors, 20 mg/kg q.2d.x11d monotherapy.

For the molecule `CCc1cccc(CC)c1NC(=O)c1ccn2c1CCc1cnc(Nc3ccc(N4CCN(C)CC4)cc3OC)nc1-2` [NTRC 0066-0], under setting [1], the Survival entry was “did not observe any delay in tumor growth (Fig. 4H) or survival” and the Tumor growth entry is recorded as “did not observe any delay in tumor growth”. Under setting [2], the Survival result is given as “not affected” and the Time-to-recurrence result is “not different between treatment groups”. Besides, the Tumor growth result (adjuvant: 5/10 mg/kg b.i.d.x7d from day 3 after RT + TMZ (2 Gy + 10 mg/kg q.d.x2d) vs RT + TMZ alone) is recorded as “could not observe any effects on tumor growth”. Under setting [3], the “Animals with tumor growth delay” value is 2 out of 7 and the Long-term survivors entry is “one long-term survivor”. Under setting [4], the Survival entry is recorded as “did not result in reduced tumor growth (Fig. 4A) or improved survival” and the Tumor growth entry is on record as “did not result in reduced tumor growth”.

The values above are taken from article PMC12909347, “Disconnect between in vitro and in vivo efficacy of the MPS1 inhibitor NTRC 0066-0 against glioblastoma” (Cellular Oncology, 2026).
